We go through three compounds from patent US6423519B1, “Compositions and methods for inhibiting fungal growth” (GPC Biotech Inc., priority 1998, dated 2002).

In brackets after ≈: the same amount, converted by molar mass. Like-named read-outs stand apart in the source and are kept apart here.

Assay [1] has as its target T1, C. albicans GGPTase (Candida albicans, UniProt Q8J224+Q9Y764).
T1 sequence (Q9Y764 1-398): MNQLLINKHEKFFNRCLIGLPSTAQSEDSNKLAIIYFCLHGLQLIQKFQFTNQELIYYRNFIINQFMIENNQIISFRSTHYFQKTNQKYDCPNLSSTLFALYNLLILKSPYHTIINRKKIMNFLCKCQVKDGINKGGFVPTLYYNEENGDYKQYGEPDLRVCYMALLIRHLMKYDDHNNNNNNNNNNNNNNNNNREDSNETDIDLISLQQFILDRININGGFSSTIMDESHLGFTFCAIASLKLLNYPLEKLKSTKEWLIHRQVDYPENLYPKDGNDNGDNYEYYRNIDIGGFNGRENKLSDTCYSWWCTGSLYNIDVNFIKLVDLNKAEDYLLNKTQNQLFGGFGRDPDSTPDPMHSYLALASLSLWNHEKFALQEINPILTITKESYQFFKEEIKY
T1 sequence (Q8J224 1-306): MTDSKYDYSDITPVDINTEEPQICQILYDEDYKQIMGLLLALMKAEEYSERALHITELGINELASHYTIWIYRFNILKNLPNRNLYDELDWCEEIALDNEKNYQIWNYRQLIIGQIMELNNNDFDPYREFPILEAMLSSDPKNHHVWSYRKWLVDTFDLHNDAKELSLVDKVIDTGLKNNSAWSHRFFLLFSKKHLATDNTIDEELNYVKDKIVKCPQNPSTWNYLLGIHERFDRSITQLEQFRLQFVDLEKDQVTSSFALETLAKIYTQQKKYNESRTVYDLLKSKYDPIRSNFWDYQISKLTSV
Nature of the assay: biochemical. Here is the method: Plate test compounds (10 μL per well) at predetermined concentration in 50% DMSO. For background control (blank) and reaction control (negative), add 10 μL of 200 μM GGPP and 10 μL 50% DMSO, respectively. Prepare assay buffer: 50 mM Tris, pH7.5, 20 mM KCL, 5 mM MgCl2, 5 μM ZnCl2, 0.5 mM Zw(3-14), 2 mM DTT and 0.1 mg/mL BSA.
Add 20 μL of C. albicans GGPTase and ^3H-GGPP in assay buffer to test compound. Preincubate enzyme and ^3H-GGPP with test compound for 15 minutes at room temperature. Add 20 μL C. albicans Rho in assay buffer. Incubate for 30 minutes at room temperature. Final assay conditions are 2 nM C. albicans GGPTase, 250 nM ^3H-GGPP and 250 nM C. albicans Rho.
Add 100 μL 15 mM GGPP, 50 mM Tris, pH7.0 and 2% BSA to quench reaction. Transfer reaction to Nickel chelate FlashPlate. Allow his-tagged C. albcians Rho to capture onto plate. Rinse plate 1× with 200 μL 20 mM Tris, pH7.0. Read in TOPCOUNT.

Assay [2] has as its target human GGTase (Homo sapiens, UniProt P53609). Nature of the assay: Human GGTase inhibition (Hu GG). It counts as biochemical. An excerpt: As described below, a variety of different compounds were synthesized and tested for inhibitory activity against human and Candida GGTase. Exemplary synthesis schemes for generating prenyltransferase inhibitors useful in the methods and compositions of the present invention are shown in FIGS. 1-56. Tables 1-5 provide Structure-Activity relationship (SAR) data for several different classes of prenyltransferase inhibitors.

The subject of assay [3] is H460 Cell Line. The assay can be described thus: Cytotoxicity of GGPTase inhibitors in human cells, H460 (Sulforhodamine B). It counts as cell-based. Here is the method:
(§1) (A) Plate out cells at predetermined concentration in a volume of 150 μl.
(§2) (B) Allow cells to adhere to plate for twenty four hours
(§3) (C) Add compounds to cells at predetermined concentration (62.5 μg/mL down four-fold, 8 dilutions) n=2
(§4) (D) Cells are exposed to drug for 7 days for the IMR90 Cell Line, and a period of 3 days for the H460 Cell Line.
(E) 1. H460 Cells are fixed in TCA, rinsed, stained with Sulforhodamine B stain, and the stain is solubilized for a final OD read.

Assay [4] has as its system IMR90 Cell Line. The assay can be described thus: Cytotoxicity of GGPTase inhibitors in human cells, IMR90 (MTT). It counts as cell-based. Here is the method:
as §1, §2, §3, §4
2. IMR90 Cells have 3-{4,5-Dimethylthiazol-2-yl}-2,5-diphenyltetrazolium bromide (MTT) added to them for three hours prior to final read out. After the three hours, media and MTT are removed and MTT crystals are solubilized in 100% DMSO for final OD read.

Assay [5] has as its system C. albicans. Nature of the assay: Determination of minimum fungicidal concentration (MFC). As to conditions: Candida albicans. Format: cell-based. On the procedure: After the required time course for the MIC determination, the minimum fungicidal concentration can then be determined by plating out the entire contents of the well of the microtitre plates onto YPD or Sabourand plates. These plates are then incubated at 35° C. for 24-48 hrs. The MFC corresponds to the concentration of compound where no cellular growth is observed on the plate. For compound 99a, and MFC was calculated of 2 μg/ml.

The subject of assay [6] is MycCaRHO1. The assay can be described thus: Prenylation state / localisation of newly synthesized MycCaRHO1 (fractionation, Western blot). It counts as cell-based, C. albicans. The conditions noted are these: 3 μg/ml, strain DIY-BL2-058, versus mock (DMSO) treated cells. Here is the method:
To look at the effect of GGPTase I inhibitors in vivo a recombinant C. albicans strain engineered to express a Myc tagged CaRHO1 under the control of the C. albicans phosphoenolpyruvate carboxykinase 1 (PCK1) promoter is used. This promoter is repressed by glucose and derepressed by gluconeogenic carbon sources such as succinate. It should also be possible to be look at the endogenous substrates of the GGPTase I. Cells are treated with a sublethal dose of compound for a period of time which has been established from a kill curve analysis in the appropriate media. After the treatment time, cells are harvested and whole cell extracts (WCE) made, these extracts are then resolved by high speed centrifugation into cytosolic and membrane fractions. Visualisation of the localisation of the MycCaRHO1 is achieved by sodium dodecyl sulfate-polyacrylamide gel electrophoresis (SDS-PAGE) and Western blotting. […]
Cells of strain DIY-BL2-058 were grown overnight in YNB supplemented with 1 μg/ml histidine, 2 μg/ml methionine, 2 μg/ml tryptophan, 200 μg/ml glutamine and 2% glucose at 220 rpm at 31° C. The cell number was then determined, cells were pelleted by centrifugation and resuspended in fresh media at a density of 1×10^7 cells/ml and incubated as above. […]
Fractions were thawed on ice. The protein concentration was determined using the standard Bradford method for the WCEs and cytosolic fraction. […]
Background: Immunoblotting shows a protein as a band on a membrane.

[7] abbreviates: Table 3 Piperidine Analogs, read-out: IC50 (nM) Ca GG.
Where [8] appears, read: Table 3 Piperidine Analogs, read-out: IC50 (nM) Hu GG.
Where [9] appears, read: NCI-H460, 72 h, read-out: IC50 (nM) H460.
The mark [10] stands for this setting: IMR-90, 168 h, read-out: IC50 (nM) IMR90.

What is called IC50 is the midpoint of a concentration-inhibition curve.

With `C[C@H](N)C(=O)N[C@@H](CS)C(=O)N1CCC(C(=O)NCc2ccncc2)(c2ccccc2)CC1` [Compound 96a], the 50% inhibitory concentration (IC50) in assay [1] (setting [7]), in assay [2] (setting [8]), in assay [3] (setting [9]) and in assay [4] (setting [10]) was over 1000 nM each time.

On to `C[C@H](N)C(=O)N[C@@H](C)C(=O)N[C@@H](CS)C(=O)N1CCC(C(=O)NCc2ccncc2)(c2ccccc2)CC1` [Compound 96b], for which the half-inhibitory concentration (IC50) in assay [1] (setting [7]) is under 1000 nM; in assay [2] (setting [8]), over 1000 nM; in assay [3] (setting [9]), over 1000 nM; in assay [4] (setting [10]) it was over 1000 nM.

With `CC(C)C[C@H](NC(=O)C1(c2ccccc2)CCN(C(=O)[C@@H](N)CS)CC1)C(=O)N[C@@H](C)C(=O)O` [Compound 99a], the 50% inhibitory concentration (IC50) in assay [1] (setting [7]) is under 50 nM; in assay [1] (Table 5, read-out: IC50 (nM) Candida), under 50 nM; in assay [2] (setting [8]), over 500 nM; in assay [2] (Table 5, read-out: IC50 (nM) Human) it was over 500 nM; in assay [3] (NCI-H460, read-out: Human cell IC50 (nM) H460), over 10000 nM; in assay [4] (IMR-90, read-out: Human cell IC50 (nM) IMR90), over 10000 nM. The MFC in assay [5] (read-out: Candida MFC (g/mL)) and in assay [5] (read-out: MFC) was 2 µg/mL (≈ 4.06 µM) throughout. Also, the “abundance of MycCaRHO1 in the cytosolic fraction (FIG. 57)” value in assay [6] is on record as “increases the abundance of MycCaRHO1 in the cytosolic fraction”.
